Reference: ChEMBL document CHEMBL4321815, “Discovery of an Extremely Potent Thiazine-Based β-Secretase Inhibitor with Reduced Cardiovascular and Liver Toxicity at a Low Projected Human Dose” (J Med Chem, 2019)

Key:
Homo sapiens = assay: In vivo inhibition of BACE1 in human assessed as reduction in amyloidbeta level at 30 mg administered once daily after 14 days MSD electrochemiluminescent immunoassay relative to control; format: functional
[1] = Hepatotoxicity in Beagle dog assessed as increase in alanine aminotransferase level at 50 mg/kg/day, po administered for 2 weeks; format: toxicity, organism-based, Canis lupus familiaris; details: in vivo, 336 h
[2] = Hepatotoxicity in po dosed Beagle dog assessed as induction of inflammatory cell infiltration of centrilobular hepatocytes at highest dose administered for 2 weeks; format: toxicity, organism-based, Canis lupus familiaris; details: in vivo, 336 h

C[C@@]1(c2cc(NC(=O)c3ccc(C#N)cn3)ccc2F)C=CSC(N)=N1 [ATABECESTAT]
inhibition (INH) (Homo sapiens): 80%
Activity [1]: Toxic
Activity [2]: Toxic
